Patent US20140336216A1, “PHYSIOLOGICAL LIGANDS FOR GPR139” (Janssen Pharmaceutica NV, priority 2013, published 2014)
Values joined by “and” are separate entries in the source; they are usually repeats but may differ in a detail not shown here. Identical values can stand only once.

System: GO2Q alone
Assay: GTPγS binding assay, control COS7 membranes expressing GO2Q alone (Ct-GO2Q)
Format: biochemical
Settings: not given
Description: (§1) In order identify the ligands for GPR139 two improvements in the detection assay were made to allow for the ligands to be detected. First, we chose to use a GTPγS binding assay instead of using live cultured cells. The GTPγS binding assay is a cell free system that uses the cell membrane of the cell(s) of interest rather than the live cell(s). One advantage of this assay is that potential ligands present in the cell culture media are washed away when the cell membrane is prepared. This reduces the basal level of signal and increase the chance of detecting receptor ligands when assessing compounds that activate the receptor. Second, a GO2Q chimeric G-protein was created to be co-expressed with GPR139 in order to increase the signal-to-noise ratio in the GTPγS binding assay. Historically, the Gi, Go coupled GPCRs offer much greater signal-to-noise ratio in GTPγS binding studies. For Gs and Gq coupled GPCRs, although ligand-stimulated specific signals can be detected in a GTPγS binding assay, the signal-to-noise ratios are often very small. To address this a chimeric GO2-Gq chimeric G-protein, GO2Q, with the N-terminus from Go2 protein and the C-terminus from Gq protein.
(§2) To test for compounds that activate GPR139, different amino acids and their derivatives (Table 2) were tested as ligands in the GTPγS binding assay using cell membranes from COS7 cells co-expressing GPR139 and GO2Q. Cell membrane from COS7 cells expressing GO2Q alone or co-expressing other GPCRs were also tested in GTPγS binding assay in parallel as controls. Each compound was tested in triplicate.

Molecule	Activation levels (GTPγS binding), Ct-GO2Q
N=C(N)NCCC[C@H](N)C(=O)O [Arg]	2171 and 2131 and 2255

Same assay, conditions: 1 mM final concentration; COS7 membranes expressing GO2Q alone; single wells of triplicate

Activation levels (GTPγS binding), Ct-GO2Q	Molecule
2240 and 2117 and 2045	CNCC(O)c1ccc(O)c(O)c1 (stereo not shown) [Adrenaline]
1903 and 2049 and 2139	C[C@H](N)C(=O)O [Ala]
2195 and 2142 and 2133	NC(=O)C[C@H](N)C(=O)O [Asn]
2177 and 2137 and 2132	N[C@@H](CC(=O)O)C(=O)O [Asp]
1928 and 2132 and 2114	N[C@@H](CS)C(=O)O [Cys]

Molecular target: T1, GPR139 (Homo sapiens, UniProt Q6DWJ6)
T1 sequence (Q6DWJ6 1-353): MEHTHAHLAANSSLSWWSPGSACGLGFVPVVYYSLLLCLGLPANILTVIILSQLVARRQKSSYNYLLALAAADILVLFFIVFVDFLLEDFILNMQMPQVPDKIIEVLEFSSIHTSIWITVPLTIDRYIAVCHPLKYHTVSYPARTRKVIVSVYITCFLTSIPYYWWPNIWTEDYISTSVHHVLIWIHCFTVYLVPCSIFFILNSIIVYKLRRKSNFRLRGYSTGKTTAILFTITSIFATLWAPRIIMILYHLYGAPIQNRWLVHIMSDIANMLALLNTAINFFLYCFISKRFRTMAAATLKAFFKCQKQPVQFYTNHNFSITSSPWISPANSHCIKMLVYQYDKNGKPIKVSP
Assay: Calcium mobilization assay (FLIPR), GPR139 expressed in HEK293 cells
Format: cell-based
Parameters: expressed in transfected cells; host or cells: HEK293 (transient)
Settings: 300 μM; calcium mobilization as percentage of that observed for L-phenylalanine
Description: FIG. 3A and FIG. 3B: Provides the results of experiments conducted to determine whether Trp and its derivatives (FIG. 3A) and Phe and its derivatives (FIG. 3B) stimulate Ca^2+ mobilization in HEK293 cells expressing GPR139.
The active compounds were also tested in a calcium mobilization assay (FLIPR® assay). For these experiments human GPR139 was transiently expressed in HEK293 cells and calcium mobilization was stimulated using L-Trp, L-Phe or their derivatives. […] The concentrations of L-Trp and L-Phe in many cell culture media (for instance DMEM is about 80 μM and 750 μM respectively) are close to the EC50 values of L-Trp and L-Phe for GPR139. […] This may explain why GPR139 appeared constitutively active when recombinantly expressed in mammalian cells.
About 300 additional phenylalanine analogues have been tested for GPR139 activation using a calcium mobilization (FLIPR®) assay. The results of these experiments indicate that many of these analogues can also activate GPR139. Table 4 lists certain phenylalanine analogues that have been determined to activate GPR139 by calcium mobilization at a concentration of 300 μM (calcium mobilization is expressed as percentage of that observed for L-phenylalanine).

Molecule	% L-phenylalanine at 300 μM (average), calcium mobilization
N[C@@H](Cc1ccc(Br)s1)C(=O)O [2-(5-bromothienyl)-L-alanine]	151 % L-phenylalanine
CC(C)(C)OC(=O)N1Cc2ccccc2C[C@@H]1C(=O)O [(3R)-2-tert-butoxycarbony 1-3,4-dihydro-1H-isoquinoline-3-carboxylic acid]	155 % L-phenylalanine
O=C(O)[C@@H]1Cc2c([nH]c3ccccc23)CN1 [L-1,2,3,4-tetrahydronorharman-3-carboxylic acid]	151 % L-phenylalanine
N[C@H](CCc1ccccc1)C(=O)O [d-Homo-phenylalanine]	105 % L-phenylalanine
S-(5-bromothienyl)-D-alanine	154 % L-phenylalanine
S-Nitro-L-phenylalanine	150 % L-phenylalanine

Same assay, conditions: HEK293, read-out: % L-phenylalanine at 300 μM (average), calcium mobilization

Molecule	Emax at 300 µM
N[C@@H](Cc1ccc([N+](=O)[O-])cc1[N+](=O)[O-])C(=O)O [2,4-Dinitro-L-phenylalanine]	95%
N[C@H](Cc1ccc(Br)cc1)C(=O)O [4-Bromo-D-phenylalanine]	139%
N[C@@H](Cc1ccc(Br)cc1)C(=O)O [4-Bromo-L-phenylalanine]	153%

Same assay, conditions: HEK293; 300 μM; calcium mobilization as percentage of that observed for L-phenylalanine; read-out: % L-phenylalanine at 300 μM (average), calcium mobilization

Emax at 300 µM	Molecule
146%	N[C@@H](Cc1ccc(Cl)cc1)C(=O)O [4-Chloro-L-phenylalanine]
91%	N[C@H](Cc1ccc(F)cc1)C(=O)O [4-Fluoro-D-phenylalanine]
132%	N[C@@H](Cc1ccc(F)cc1)C(=O)O [4-Fluoro-L-phenylalanine]
128%	COc1ccc(C[C@H](N)C(=O)O)cc1 [4-Methoxy-L-phenylalanine]
102%	Cc1ccc(C[C@@H](N)C(=O)O)cc1 [4-Methyl-D-phenylalanine]
149%	Cc1ccc(C[C@H](N)C(=O)O)cc1 [4-Methyl-L-phenylalanine]
111%	N[C@H](Cc1ccc([N+](=O)[O-])cc1)C(=O)O [4-Nitro-D-phenylalanine]
150%	N[C@@H](Cc1ccc(C(F)(F)F)cc1)C(=O)O [4-Trifluoromethyl-L-phenylalanine]
115%	CC(C)(C)c1ccc(C[C@H](N)C(=O)O)cc1 [4-tert-Butyl-L-phenylalanine]
129%	N[C@H](CCCc1ccccc1)C(=O)O [D-2-Amino-5-phenyl-pentanoic acid]
125%	C[C@](N)(Cc1ccc(F)cc1)C(=O)O [α-methyl-4-Fluoro-L-phenylalanine]

More lines, now with the values behind:

Molecule	Emax at 300 µM
N[C@H](Cc1c(F)c(F)c(F)c(F)c1F)C(=O)O [2,3,4,5,6-P entafluoro-D-phenylalanine]	145%
N[C@H](Cc1ccc(Cl)cc1Cl)C(=O)O [2,4-Dichloro-D-phenylalanine]	135%
N[C@@H](Cc1ccc(Cl)cc1Cl)C(=O)O [2,4-Dichloro-L-phenylalanine]	122%
Cc1ccc(C[C@@H](N)C(=O)O)c(C)c1 [2,4-Dimethyl-D-phenylalanine]	101%
Cc1ccc(C[C@H](N)C(=O)O)c(C)c1 [2,4-Dimethyl-L-phenylalanine]	113%
N[C@H](Cc1ccccc1Br)C(=O)O [2-Bromo-D-phenylalanine]	135%
N[C@@H](Cc1ccccc1Br)C(=O)O [2-Bromo-L-phenylalanine]	168%
N[C@@H](Cc1ccccc1F)C(=O)O [2-Fluoro-L-phenylalanine]	119%
Cc1ccccc1C[C@@H](N)C(=O)O [2-Methyl-D-phenylalanine]	109%
Cc1ccccc1C[C@H](N)C(=O)O [2-Methyl-L-phenylalanine]	134%
N[C@@H](Cc1ccccc1C(F)(F)F)C(=O)O [2-Trifluoromethyl-L-phenylalanine]	110%
N[C@H](C(=O)O)C(c1ccccc1)c1ccccc1 [3,3-Diphenyl-L-alanine]	117%
N[C@H](Cc1ccc(Cl)c(Cl)c1)C(=O)O [3,4-Dichloro-D-phenylalanine]	149%
N[C@@H](Cc1ccc(Cl)c(Cl)c1)C(=O)O [3,4-Dichloro-L-phenylalanine]	149%
N[C@H](Cc1ccc(F)c(F)c1)C(=O)O [3,4-Difluoro-D-phenylalanine]	121%
N[C@H](Cc1cc(F)cc(F)c1)C(=O)O [3,5-Difluoro-D-phenylalanine]	102%

Molecule	Emax at 300 µM
N[C@H](Cc1cccc(Br)c1)C(=O)O [3-Bromo-D-phenylalanine]	172%
N[C@@H](Cc1cccc(Br)c1)C(=O)O [3-Bromo-L-phenylalanine]	167%
N[C@H](Cc1cccc(Cl)c1)C(=O)O [3-Chloro-D-phenylalanine]	147%
N[C@@H](Cc1cccc(Cl)c1)C(=O)O [3-Chloro-L-phenylalanine]	145%
N#Cc1cccc(C[C@@H](N)C(=O)O)c1 [3-Cyano-D-phenylalanine]	93%
N#Cc1cccc(C[C@H](N)C(=O)O)c1 [3-Cyano-L-phenylalanine]	115%
N[C@H](Cc1cccc(F)c1)C(=O)O [3-Fluoro-D-phenylalanine]	94%
N[C@@H](Cc1cccc(F)c1)C(=O)O [3-Fluoro-L-phenylalanine]	114%
Cc1cccc(C[C@@H](N)C(=O)O)c1 [3-Methyl-D-phenylalanine]	150%
Cc1cccc(C[C@H](N)C(=O)O)c1 [3-Methyl-L-phenylalanine]	147%
N[C@H](Cc1cccc([N+](=O)[O-])c1)C(=O)O [3-Nitro-D-Phenylalanin]	164%
N[C@@H](Cc1cccc([N+](=O)[O-])c1)C(=O)O [3-Nitro-L-phenylalanine]	131%
N[C@@H](Cc1cccc(C(F)(F)F)c1)C(=O)O [3-Trifluoromethyl-L-phenylalanine]	133%
N[C@H](Cc1ccc(Cl)cc1)C(=O)O [4-Chloro-D-phenylalanine]	110%
N[C@H](Cc1ccc(I)cc1)C(=O)O [4-Iodo-D-phenylalanine]	125%
N[C@@H](Cc1ccc(I)cc1)C(=O)O [4-Iodo-L-phenylalanine]	116%

Molecular target: T1, GPR139
Assay: GTPγS binding assay, single-concentration screen, COS7 membranes co-expressing GPR139 and GO2Q
Format: biochemical
Parameters: expressed in transfected cells; host or cells: COS7 (membranes)
Settings: 1 mM final concentration; COS7 membranes co-expressing GPR139 and GO2Q; single wells of triplicate
Description: as §1, §2

Activation levels of GPR139 (GTPγS binding), GPR139-GO2Q	Molecule
2721 and 2624 and 2670	CNCC(O)c1ccc(O)c(O)c1 (stereo not shown) [Adrenaline]
2363 and 2348 and 2439	C[C@H](N)C(=O)O [Ala]
2806 and 2483 and 2547	NC(=O)C[C@H](N)C(=O)O [Asn]
2758 and 2922 and 2925	N[C@@H](CC(=O)O)C(=O)O [Asp]
2168 and 2458 and 2336	N[C@@H](CS)C(=O)O [Cys]

Molecule	Activation levels of GPR139 (GTPγS binding), GPR139-GO2Q
N=C(N)NCCC[C@H](N)C(=O)O [Arg]	2806 and 2783 and 2528
